Experiments:
[1] = test system: Salmonella typhimurium strain TM677; assay: Antimutagenic assay, DMBA-induced mutagenesis; type: cell-based; settings: S. typhimurium TM677; listed as 4'-BF
Experimental: A dose and time dependent induction of two major detoxification isoforms of GST (α form and μ form) mediated by 4'-BF has been studied in H4IIE rat hepatoma cells. In order to determine a possible mechanism of induction, the QR mRNA expression was tested using a RT-PCR technique and the induction patterns using HepG2 cells transfected with QR-chloramphenical acetyltransferase plasmid constructs containing various portions of 5'-region of the QR gene were analyzed. The antimutagenic activity of 4'-BF was tested in an antimutagenic assay against DMBA-induced mutagenesis with Salmonella typhimurium strain TM677. The chemopreventive efficacy of 4'-BF also was evaluated in a DMBA-induced mammary tumor carcinogenesis model in Sprague Dawley rats.

[2] = test system: glutathione (GSH); assay: Induction of glutathione (GSH) in mouse liver and mammary glands (Table 3); type: in vivo
[3] = test system: cytochrome P4501A1; assay: Effect on DMBA-induced cytochrome P4501A1 activity in rat tissues; type: in vivo, Sprague Dawley rat
Experimental: At 43 days of age, Sprague Dawley rats were placed on various experimental diets (Table 1) for 1 week prior to administration of a single (i.g.) dose of DMBA (15 mg). Animals then were weighed and sacrificed by CO2 asphyxiation. Tissues (livers and mammary glands) were collected, rinsed with saline, frozen in liquid nitrogen, and stored at -80° C. until analysis. Individual tissues were homogenized in 0.05 M Tris-HCl buffer (pH 7.5) containing 0.25 M sucrose. Cytosolic and microsomal fractions were obtained through differential centrifugation. Dicumarol-sensitive QR activity was measured as described above using 50 μl of suitably diluted cytosol supernatants (in duplicate). Cytochrome P4501A1-mediated EROD activities were determined as described previously in R. Poul et al. Anal. Biochem., 107, pp. 265-275 (1980) and S. Sharma et al., Cancer Res., 54, pp. 5848-5844 (1994), with slight modifications using suitably diluted microsomal protein. Enzyme activities were expressed as nmol/mg protein/min. Protein content was determined using Bradford reagent with BSA as standard, and data were presented as mean ±SE and analyzed using Student's t test (n=5).

[4] = test system: quinone reductase (QR); assay: Induction of quinone reductase (QR) in mouse liver and mammary glands (Table 3); type: in vivo
[5] = test system: MCF-7 cells (B[α]P-DNA adducts); assay: Binding of metabolically activated [3H]B[α]P to DNA of cultured MCF-7 cells; type: cell-based; settings: Homo sapiens, MCF7, read-out: IC50, formation of B[α]P-DNA adducts, MCF-7
Experimental: Effect of 4'-BF on the Binding of Metabolically Activated [^3 H]B[α]P to DNA of Cultured Cells. HepG2 cells or MCF-7 cells were plated at a density of 1×10^6 cells/dish in 6 cm Petri dishes and allowed to incubate for 18 hours. Fresh media containing test samples were added to the cells 2 hours prior to the addition of 1 μM [^3 H]B[α]P (10 Ci/mmol) The test compound and tritiated carcinogen then were incubated for 6 hours. Following incubation, genomic DNA was extracted by the method described by Sharma et al., with minor modifications. Briefly, the cells were washed three times with PBS and harvested by incubation with 0.5 ml of proteinase K (100 μg/ml) in 0.2 M Tris-0.1 M EDTA (pH 8.5) for 10 min at 37° C. The cells were gently scraped from the dishes, transferred to 50 μl of 10% SDS solution, and incubated for 3 hours at 55° C. […] An aliquot of harvested DNA was used for measuring the relative absorbencies at 260 and 280 nm (A2360 nm/A2380 nm=1.7-1.9), and the DNA content was determined by absorbance at 260 nm (1 A2360 nm unit=50 μg). The remaining sample was used for the determination of radioactivity. All experiments were performed in triplicate; percentage inhibition of carcinogen-DNA binding mediated by test samples was calculated as follows: % inhibition=[1-(dpm per μg DNA test cells/dpm per μg DNA control cells)]×100.

[6] = test system: quinone reductase (QR), Hepa 1c1c7 cells; assay: Quinone reductase (QR) induction in Hepa 1c1c7 cells; type: cell-based, murine
Source text: This test was used because the specific activity of QR rises concomitantly with other phase II enzymes in many animal tissues in response to various chemopreventive agents. The study included natural and synthetic B-ring substituted flavones, as well as biosynthetic precursor chalcones and flavanones.
Determination of Quinone Reductase Activity in Cell Cultures. To determine the potency of inducers, Hepa 1c1c7 murine hepatoma cells as described in the Gerhauser publication were placed in 96-well plates at a density of 1×10^4 cells/ml in 200 μl of medium. After a preincubation period of 24 hr, the media were decanted and 190 μl fresh media were added to each well. Ten (10) μl test agents dissolved in 10% DMSO (final concentration of DMSO is 0.5%) with a serial 2-fold dilutions were introduced to each well, and the plates were incubated for an additional 48 hours. Specific QR activity was determined by measuring the NADPH-dependent menadiol-mediated reduction of 3-(4, 5-dimethylthiazo-2-yl)-2,5-diphenyltetrazolium bromide to blue formazan formed per mg protein per minute. Protein was determined in an identical set of test plates by staining with crystal violet. Hepa 1c1c7 cells retain many characteristics of normal issues, particularly the capacity for carcinogen activation and metabolism. They are amenable to precise control of environmental, nutritional, and hormonal factors. […] Induction of QR activity was calculated by comparing the QR specific activity of agent-treated cells with that of solvent-treated cells, and a plot of ratio was generated. CD represents the concentration required to double QR induction. Chemopreventive index (CI) is an indexing value generated by comparing CD with IC50 (concentration for 50% inhibition of cell viability) values.
Induction of Quinone Reductase in Hepa 1c1c7 Cells. […] Modification of the B-ring of chalcones, flavanones, and flavones was hypothesized to induce torsion of the B-ring, and, therefor, simulate out-of-plane distortions characteristic of polycyclic aromatic hydrocarbons, such as DMBA. Induction of QR activity was calculated by comparing the QR specific activity of agent-treated cells with the QR specific activity of solvent-treated cells, and a plot of ratios was generated. CD represents the concentration required for a double fold of induction. CI (Chemopreventive Index) is a value obtained by comparing CD with IC50 (concentration for 50% inhibition of cell viability in […]).

## O=c1cc(-c2ccc(Br)cc2)oc2ccccc12 [4'-Bromoflavone]
[1]
  inhibition of DMBA-induced mutagenesis: strongly inhibited
[2]; liver
  GSH (Treated/Control), Liver: 2.11
[2]; mammary gland
  GSH (Treated/Control), Mammary Gland: 1.77
[3]; liver and mammary gland, each treatment regimen
  cytochrome P4501A1 activity vs control (basal diet): significantly induced
[3]; liver or mammary gland, in addition to DMBA
  DMBA-induced cytochrome P4501A1 activity: did not significantly alter
[4]; liver
  QR (Treated/Control), Liver: 5.27
[4]; mammary gland
  QR (Treated/Control), Mammary Gland: 2.66
[5]
  IC50: ~1.7 µM
[6]; Hepa 1c1c7 cells
  Cq: 0.15 µM
[6]; IC50/CD, 2880 min
  CI, chemoprevention index (IC50/CD): > 17000
[6]; Mus musculus, Hepa-1c1c7, 48 h, Hepa 1c1c7 cells, 48 h, read-out: CD, concentration to double the specific activity of QR
  EC (2-fold): 0.01 µM
[6]; compared to sulforaphane
  times more active than sulforaphane: about 40 times
